{"source": "patent US9169279B2", "about": "“Crystallization method and bioavailability” (THAR PHARMACEUTICALS, INC., priority 2009, dated 2015)", "key": {"[1]": {"test": "Dog PK study: zoledronic acid in serum after IV or oral capsule dosing, enteric or non-enteric coated, with or without excess coformer (LC/MS/MS)", "type": "in vivo, Beagle dogs", "conditions": "beagle, read-out: Average serum concentration of 5 dogs", "text": "(§1) This can be attributed to the fact that both animals have historically been used in the safety evaluation and PK screening studies and are recommended by appropriate regulatory agencies. […] Additional tests included ID administration in rats and administration of enteric coated capsules in dogs.\n(§2) USA. Some animals have surgical catheters (jugular vein and intraduodenum) were implanted to the animals prior to the studies. Beagle dogs from Marshall Farms, N.Y., USA, weighing from (9-12 kg) were used in the studies presented herein. Surgical catheters (jugular vein) were implanted prior to the studies.\nThe dose volume of each dog was adjusted based upon the average weight of the dog. • ii. […]\nBlood samples were placed without the use of an anticoagulant and allowed to sit at room temperature for approximately 30 minutes. Samples were then centrifuged at a temperature of 4° C., at a speed of 13,000 rpm, for 5 minutes. Serum was collected and split into two aliquots and stored frozen (−80° C.) until analysis.\nIn this study, capsules of particulate materials (zoledronic:DL-lysine:water complex and excess pure DL-lysine)."}, "[2]": {"test": "Dog urine excretion: quantity of zoledronic acid in urine over collection intervals (LC/MS/MS)", "type": "in vivo, Beagle dogs", "conditions": "Leg 38, 0.12 mg/kg IV, saline solution"}, "[3]": {"conditions": "in vivo; cited from earlier work"}, "[4]": {"test": "Rat PK study: zoledronic acid in plasma after IV, oral gavage or intraduodenal dosing (LC/MS/MS)", "type": "in vivo", "conditions": "male, Sprague-Dawley, read-out: Average plasma concentration of 3 rats", "text": "as §1, §2\nThe dose of each rat was calculated on a per rat basis (not on an average weight of all the rats in the lot). • ii. Oral gavage administration: solid suspensions were administered. The dose of each rat was calculated on a per rat basis (not on an average weight of all the rats in the lot). […] Duodenal cannula administration: solid suspensions were administered. The dose of each rat was calculated on a per rat basis (not on an average weight of all the rats in the lot).\nTwo major groups of animals were selected for the study. • Group 1 consists of rat studies. […] Details of Group 1 Rat Dosing\nPlasma was collected after centrifugation at 13,000 rpm for 5 min at 4° C. and immediately frozen and stored at −60 to −80° C. until analysis."}, "[5]": {"conditions": "iv, 0.183 mg/kg, Leg 13, 0.183 mg/kg IV, saline solution"}, "[6]": {"conditions": "po, Leg 19, 61.3 mg with 322.9 mg DL-lysine monohydrate, gelatin capsule, PO"}, "[7]": {"conditions": "po, Leg 24, 64.0 mg with 374.8 mg L-lysine HCl, gelatin capsule, PO"}, "[8]": {"conditions": "other: intraduodenal (ID, duodenal cannula), 5 mg/kg"}}, "note": "Where two headings read alike, the source gives them in different places."}
{"smiles": "O=P(O)(O)C(O)(Cn1ccnc1)P(=O)(O)O", "note": "[Zoledronic acid, (1-hydroxy-2-imidazol-1-yl-1-phosphono-ethyl)phosphonic acid]", "values": [{"measurement": "concentration at 1.5 h", "setting": "[1]; [5]", "result": 140, "unit": "ng/mL"}, {"measurement": "concentration at 2 h", "setting": "[1]; [5]", "result": 80.9, "unit": "ng/mL"}, {"measurement": "concentration at 4 h", "setting": "[1]; [5]", "result": 23.4, "unit": "ng/mL"}, {"measurement": "concentration at 8 h", "setting": "[1]; [5]", "result": 8.78, "unit": "ng/mL"}, {"measurement": "concentration at 24 h", "setting": "[1]; [5]", "result": 3.84, "unit": "ng/mL"}, {"measurement": "concentration at 0 h", "setting": "[1]; [6]", "result": 0, "unit": "ng/mL"}, {"measurement": "concentration at 5 min", "setting": "[1]; [6]", "result": 34.1, "unit": "ng/mL"}, {"measurement": "concentration at 10 min", "setting": "[1]; [6]", "result": 42.7, "unit": "ng/mL"}, {"measurement": "concentration at 0.25 h", "setting": "[1]; [6]", "result": 220, "unit": "ng/mL"}, {"measurement": "concentration at 0.5 h", "setting": "[1]; [6]", "result": 659, "unit": "ng/mL"}, {"measurement": "concentration at 0.75 h", "setting": "[1]; [6]", "result": 479, "unit": "ng/mL"}, {"measurement": "concentration at 1 h", "setting": "[1]; [6]", "result": 384, "unit": "ng/mL"}, {"measurement": "concentration at 1.5 h", "setting": "[1]; [6]", "result": 210, "unit": "ng/mL"}, {"measurement": "concentration at 2 h", "setting": "[1]; [6]", "result": 136, "unit": "ng/mL"}, {"measurement": "concentration at 4 h", "setting": "[1]; [6]", "result": 34.2, "unit": "ng/mL"}, {"measurement": "concentration at 8 h", "setting": "[1]; [6]", "result": 8.53, "unit": "ng/mL"}, {"measurement": "concentration at 24 h", "setting": "[1]; [6]", "result": 2.07, "unit": "ng/mL"}, {"measurement": "concentration at 0 h", "setting": "[1]; [7]", "result": 0, "unit": "ng/mL"}, {"measurement": "concentration at 5 min", "setting": "[1]; [7]", "result": 0, "unit": "ng/mL"}, {"measurement": "concentration at 10 min", "setting": "[1]; [7]", "result": 1.2, "unit": "ng/mL"}, {"measurement": "concentration at 0.25 h", "setting": "[1]; [7]", "result": 14.1, "unit": "ng/mL"}, {"measurement": "concentration at 0.5 h", "setting": "[1]; [7]", "result": 172, "unit": "ng/mL"}, {"measurement": "concentration at 0.75 h", "setting": "[1]; [7]", "result": 340, "unit": "ng/mL"}, {"measurement": "concentration at 1 h", "setting": "[1]; [7]", "result": 283, "unit": "ng/mL"}, {"measurement": "concentration at 1.5 h", "setting": "[1]; [7]", "result": 163, "unit": "ng/mL"}, {"measurement": "concentration at 2 h", "setting": "[1]; [7]", "result": 100, "unit": "ng/mL"}, {"measurement": "concentration at 4 h", "setting": "[1]; [7]", "result": 26.3, "unit": "ng/mL"}, {"measurement": "concentration at 8 h", "setting": "[1]; [7]", "result": 4.56, "unit": "ng/mL"}, {"measurement": "concentration at 24 h", "setting": "[1]; [7]", "result": 0.89, "unit": "ng/mL"}, {"measurement": "Average quantity of zoledronic acid in urine excretion of 4 dogs", "setting": "[2]; interval 0-4 h", "result": 242050, "unit": "ng"}, {"measurement": "Average quantity of zoledronic acid in urine excretion of 4 dogs", "setting": "[2]; interval 4-8 h", "result": 21165, "unit": "ng"}, {"measurement": "Average quantity of zoledronic acid in urine excretion of 4 dogs", "setting": "[2]; interval 8-12 h", "result": 10925, "unit": "ng"}, {"measurement": "Average quantity of zoledronic acid in urine excretion of 4 dogs", "setting": "[2]; interval 12-24 h", "result": 43700, "unit": "ng"}, {"measurement": "Average quantity of zoledronic acid in urine excretion of 4 dogs", "setting": "[2]; interval 24-96 h", "result": 263151, "unit": "ng"}, {"measurement": "gastric and intestinal irritations", "setting": "[3]", "result": "severe gastric and intestinal irritations"}, {"measurement": "concentration at 0.083333 hour", "setting": "[4]; iv, 0.5 mg/kg", "result": 3250, "unit": "ng/mL"}, {"measurement": "concentration at 0.25 hour", "setting": "[4]; iv, 0.5 mg/kg", "result": 1950, "unit": "ng/mL"}, {"measurement": "concentration at 0.5 hour", "setting": "[4]; iv, 0.5 mg/kg", "result": 1130, "unit": "ng/mL"}, {"measurement": "concentration at 1 hour", "setting": "[4]; iv, 0.5 mg/kg", "result": 404, "unit": "ng/mL"}, {"measurement": "concentration at 2 hour", "setting": "[4]; iv, 0.5 mg/kg", "result": 113, "unit": "ng/mL"}, {"measurement": "concentration at 4 hour", "setting": "[4]; iv, 0.5 mg/kg", "result": 30.5, "unit": "ng/mL"}, {"measurement": "concentration at 8 hour", "setting": "[4]; iv, 0.5 mg/kg", "result": 10.7, "unit": "ng/mL"}, {"measurement": "concentration at 24 hour", "setting": "[4]; iv, 0.5 mg/kg", "result": 2.98, "unit": "ng/mL"}, {"measurement": "concentration at 0.25 hour", "setting": "[4]; [8]", "result": 146, "unit": "ng/mL"}, {"measurement": "concentration at 0.5 hour", "setting": "[4]; [8]", "result": 110, "unit": "ng/mL"}, {"measurement": "concentration at 1 hour", "setting": "[4]; [8]", "result": 47.4, "unit": "ng/mL"}, {"measurement": "concentration at 2 hour", "setting": "[4]; [8]", "result": 12.9, "unit": "ng/mL"}, {"measurement": "concentration at 4 hour", "setting": "[4]; [8]", "result": 3.85, "unit": "ng/mL"}, {"measurement": "concentration at 8 hour", "setting": "[4]; [8]", "result": 0.97, "unit": "ng/mL"}, {"measurement": "concentration at 24 hour", "setting": "[4]; [8]", "result": 0, "unit": "ng/mL"}, {"measurement": "concentration at 0.25 hour", "setting": "[4]; po, 5 mg/kg", "result": 330, "unit": "ng/mL"}, {"measurement": "concentration at 0.5 hour", "setting": "[4]; po, 5 mg/kg", "result": 267, "unit": "ng/mL"}, {"measurement": "concentration at 1 hour", "setting": "[4]; po, 5 mg/kg", "result": 139, "unit": "ng/mL"}, {"measurement": "concentration at 2 hour", "setting": "[4]; po, 5 mg/kg", "result": 47.7, "unit": "ng/mL"}, {"measurement": "concentration at 4 hour", "setting": "[4]; po, 5 mg/kg", "result": 11.8, "unit": "ng/mL"}, {"measurement": "concentration at 8 hour", "setting": "[4]; po, 5 mg/kg", "result": 2, "unit": "ng/mL"}, {"measurement": "concentration at 24 hour", "setting": "[4]; po, 5 mg/kg", "result": 0, "unit": "ng/mL"}]}
